Results published in PMC9297976 (Journal of Applied Toxicology, 2021).

What was measured:
[1] = target: T1, medaka Esr1 (mEsr1) (Oryzias latipes, UniProt P50241); experiment: Medaka Esr1 reporter gene assay, antagonist assay; format: cell-based, Japanese medaka (Oryzias latipes); conditions: E2 spiked at 1.0 nM (B); MAC = 1.0 × 10^−5 M
T1 sequence (P50241 1-620): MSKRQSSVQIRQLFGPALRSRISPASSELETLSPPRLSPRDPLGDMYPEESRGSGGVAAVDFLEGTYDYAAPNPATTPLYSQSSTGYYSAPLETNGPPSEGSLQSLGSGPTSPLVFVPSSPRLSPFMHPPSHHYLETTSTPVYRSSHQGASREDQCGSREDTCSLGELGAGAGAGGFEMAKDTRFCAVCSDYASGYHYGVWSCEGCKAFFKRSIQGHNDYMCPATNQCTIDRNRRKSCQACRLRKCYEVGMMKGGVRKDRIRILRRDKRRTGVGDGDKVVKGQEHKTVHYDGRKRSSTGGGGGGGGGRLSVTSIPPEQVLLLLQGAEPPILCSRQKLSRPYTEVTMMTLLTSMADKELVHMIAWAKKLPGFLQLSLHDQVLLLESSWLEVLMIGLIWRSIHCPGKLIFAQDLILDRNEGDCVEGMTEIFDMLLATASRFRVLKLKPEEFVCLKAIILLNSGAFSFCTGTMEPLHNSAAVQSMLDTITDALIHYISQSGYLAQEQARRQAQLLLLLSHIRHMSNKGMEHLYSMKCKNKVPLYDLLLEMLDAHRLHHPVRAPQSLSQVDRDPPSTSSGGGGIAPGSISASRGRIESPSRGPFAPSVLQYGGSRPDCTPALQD

[2] = target: T2, medaka ARβ (mArβ) (Oryzias latipes, UniProt D1MV73); experiment: Medaka ARβ reporter gene assay, antagonist assay; format: cell-based, Japanese medaka (Oryzias latipes); conditions: 11‐KT spiked at 50 nM (D); MAC = 1.0 × 10^−5 M
T2 sequence (D1MV73 1-744): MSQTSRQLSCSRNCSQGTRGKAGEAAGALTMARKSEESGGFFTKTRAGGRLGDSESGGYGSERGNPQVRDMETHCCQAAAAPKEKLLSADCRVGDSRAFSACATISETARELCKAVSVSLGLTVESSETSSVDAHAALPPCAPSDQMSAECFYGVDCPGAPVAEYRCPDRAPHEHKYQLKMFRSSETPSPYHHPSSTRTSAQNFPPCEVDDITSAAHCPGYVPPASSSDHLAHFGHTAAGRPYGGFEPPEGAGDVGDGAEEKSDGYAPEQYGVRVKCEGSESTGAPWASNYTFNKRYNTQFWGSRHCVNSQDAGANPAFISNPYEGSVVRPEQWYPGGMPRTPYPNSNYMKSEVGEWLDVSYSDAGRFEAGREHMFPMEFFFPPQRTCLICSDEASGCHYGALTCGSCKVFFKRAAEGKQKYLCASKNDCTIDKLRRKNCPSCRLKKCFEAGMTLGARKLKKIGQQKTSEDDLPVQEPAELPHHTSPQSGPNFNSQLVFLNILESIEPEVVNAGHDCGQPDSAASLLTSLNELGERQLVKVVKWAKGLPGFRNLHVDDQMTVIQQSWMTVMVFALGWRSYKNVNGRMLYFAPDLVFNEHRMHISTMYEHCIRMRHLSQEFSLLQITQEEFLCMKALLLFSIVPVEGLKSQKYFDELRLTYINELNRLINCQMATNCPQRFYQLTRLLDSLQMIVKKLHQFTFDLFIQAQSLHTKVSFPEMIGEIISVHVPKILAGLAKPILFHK

[3] = ref Brooke et al., 2009; Saeger et al., 1979; cited from earlier work
[4] = test system: Japanese medaka (Oryzias latipes); experiment: Fish Short‐Term Reproduction Assay; format: in vivo; conditions: for GSI Female / GSI Male / HSI Female / HSI Male / Length Female / Length Male / Weight Female / Weight Male: completion of exposure
[5] = target: T2, medaka ARβ (mArβ); experiment: Medaka ARβ reporter gene assay, agonist assay; format: cell-based, Japanese medaka (Oryzias latipes); conditions: MAC = 1.0 × 10^−5 M
[6] = target: T1, medaka Esr1 (mEsr1); experiment: cell-based; set-up: species or system Japanese medaka (Oryzias latipes)
[7] = 44.9 μg/L measured, 21 d, sig. ↓ vs control
[8] = measured concentration 2.13 μg/L
[9] = measured concentration 7.19 μg/L
[10] = measured concentration 17.1 μg/L
[11] = measured concentration 44.9 μg/L

In the case of O=P(Oc1ccccc1)(Oc1ccccc1)Oc1ccccc1 [TPP, Triphenyl phosphate], the Antagonistic activity [1] is listed as “NE (MAC = 1.0 × 10^−5 M)^(B)”, the Antagonistic activity [2] is listed as “NE (MAC = 1.0 × 10^−5 M)^(D)” and the Water solubility [3] is listed as 1 to 1.9 µg/mL. For the same compound, the Fertility rate ([4]; 2.13 μg/L measured, 21 d) was 89 ± 4.9%, the “Hepatic VTG, female” value ([4]; 2.13 μg/L measured, 21 d) was 542 ± 115 ng/mg‐liver and the “Hepatic VTG, male” value ([4]; 2.13 μg/L measured, 21 d) was 6.9 ± 4.0 ng/mg‐liver. For the same compound, the Mortality ([4]; 2.13 μg/L measured, 21 d) was 0.0%, the “Mortality, number of dead fish” value ([4]; 2.13 μg/L measured, 21 d) was 0 and the “Number of fertilized eggs (per female per day)” value ([4]; 2.13 μg/L measured, 21 d) was 18 ± 3.1. The “Number of total eggs (per female per day)” value ([4]; 2.13 μg/L measured, 21 d) was 20 ± 2.7, the “SSC female (joint plates with papillary processes)” value (from here on “SSC female”) ([4]; 2.13 μg/L measured, 21 d) was 0 ± 0 and the “SSC male (joint plates with papillary processes)” value (from here on “SSC male”) ([4]; 2.13 μg/L measured, 21 d) was 83 ± 7.4. The Fertility rate ([4]; 7.19 μg/L measured, 21 d) was 91 ± 3.8%, the “Hepatic VTG, male” value ([4]; 7.19 μg/L measured, 21 d) was 8.4 ± 9.0 ng/mg‐liver and the Mortality ([4]; 7.19 μg/L measured, 21 d) was 0.0%. The “Mortality, number of dead fish” value ([4]; 7.19 μg/L measured, 21 d) was 0, the “Number of fertilized eggs (per female per day)” value ([4]; 7.19 μg/L measured, 21 d) was 17 ± 3.4 and the “Number of total eggs (per female per day)” value ([4]; 7.19 μg/L measured, 21 d) was 19 ± 3.1. The “SSC female” value ([4]; 7.19 μg/L measured, 21 d) was 0 ± 0, the “SSC male” value ([4]; 7.19 μg/L measured, 21 d) was 84 ± 6.9 and the “Hepatic VTG, female” value ([4]; 7.19 μg/L measured, 21 d, sig. ↓ vs control) was 360 ± 60 ng/mg‐liver. For the same compound, the Fertility rate ([4]; 17.1 μg/L measured, 21 d) was 93 ± 2.2%, the “Hepatic VTG, male” value ([4]; 17.1 μg/L measured, 21 d) was 11 ± 9.4 ng/mg‐liver and the Mortality ([4]; 17.1 μg/L measured, 21 d) was 0.0%. For the same compound, the “Mortality, number of dead fish” value ([4]; 17.1 μg/L measured, 21 d) was 0, the “Number of fertilized eggs (per female per day)” value ([4]; 17.1 μg/L measured, 21 d) was 19 ± 1.8 and the “Number of total eggs (per female per day)” value ([4]; 17.1 μg/L measured, 21 d) was 20 ± 2.0. The “SSC female” value ([4]; 17.1 μg/L measured, 21 d) was 0 ± 0, the “SSC male” value ([4]; 17.1 μg/L measured, 21 d) was 83 ± 7.2 and the “Hepatic VTG, female” value ([4]; 17.1 μg/L measured, 21 d, sig. ↓ vs control) was 420 ± 77 ng/mg‐liver. For the same compound, the Fertility rate ([4]; 44.9 μg/L measured, 21 d) was 91 ± 3.9%, the “Hepatic VTG, male” value ([4]; 44.9 μg/L measured, 21 d) was 8.8 ± 8.1 ng/mg‐liver and the Mortality ([4]; 44.9 μg/L measured, 21 d) was 4.2%. The “Mortality, number of dead fish” value ([4]; 44.9 μg/L measured, 21 d) was 1, the “SSC female” value ([4]; 44.9 μg/L measured, 21 d) was 0 ± 0 and the “SSC male” value ([4]; 44.9 μg/L measured, 21 d) was 90 ± 8.0. The “Hepatic VTG, female” value [4, 7] was 417 ± 70 ng/mg‐liver, the “Number of fertilized eggs (per female per day)” value [4, 7] was 15 ± 3.5 and the “Number of total eggs (per female per day)” value [4, 7] was 16 ± 3.2. For the same compound, the “Fecundity, number of total eggs (in words)” value ([4]; 21 d) was “statistically significant decrease”, the LOECmVTG ([4]; LOEC on VTG induction in males) was “ND (>44.9) μg/L” and the LOECREPRO ([4]; LOEC on reproduction (fecundity and/or fertility)) was 44.9 µg/L. The “Fertility rate (in words)” value ([4]; chemicals with significant decrease of number of total eggs) was “no significant effect”, the “LOECREPRO (reduction in fecundity or fertility)” value ([4]; concentrations without overt toxicity) was 44.9 µg/L and the LOECTOX ([4]; lowest observed effect concentration on mortality) was “ND (>44.9) μg/L”. The “GSI Female” value [4, 8] was 7.9 ± 0.5%, the “GSI Male” value [4, 8] was 0.87 ± 0.17% and the “HSI Female” value [4, 8] was 3.5 ± 0.39%. For the same compound, the “HSI Male” value [4, 8] was 1.4 ± 0.12%, the “Length Female” value [4, 8] was 35.3 ± 0.7 mm and the “Length Male” value [4, 8] was 37.9 ± 1.1 mm. The “Weight Female” value [4, 8] was 449 ± 19 mg, the “Weight Male” value [4, 8] was 532 ± 44 mg and the “GSI Female” value [4, 9] was 8.1 ± 0.6%. For the same compound, the “GSI Male” value [4, 9] was 0.95 ± 0.09%, the “HSI Female” value [4, 9] was 3.1 ± 0.21% and the “HSI Male” value [4, 9] was 1.7 ± 0.29%. For the same compound, the “Length Female” value [4, 9] was 35.5 ± 0.3 mm, the “Length Male” value [4, 9] was 38.0 ± 1.1 mm and the “Weight Female” value [4, 9] was 464 ± 27 mg. The “Weight Male” value [4, 9] was 544 ± 49 mg, the “GSI Female” value [4, 10] was 7.7 ± 0.7% and the “GSI Male” value [4, 10] was 0.94 ± 0.10%. For the same compound, the “HSI Female” value [4, 10] was 3.6 ± 0.46%, the “HSI Male” value [4, 10] was 1.7 ± 0.24% and the “Length Female” value [4, 10] was 35.2 ± 1.0 mm. The “Length Male” value [4, 10] was 37.7 ± 1.0 mm, the “Weight Female” value [4, 10] was 468 ± 34 mg and the “Weight Male” value [4, 10] was 539 ± 31 mg. For the same compound, the “GSI Female” value [4, 11] was 9.4 ± 1.3%, the “GSI Male” value [4, 11] was 0.80 ± 0.07% and the “HSI Female” value [4, 11] was 3.6 ± 0.60%. The “HSI Male” value [4, 11] was 1.7 ± 0.13%, the “Length Female” value [4, 11] was 34.4 ± 0.4 mm and the “Length Male” value [4, 11] was 38.3 ± 1.1 mm. For the same compound, the “Weight Female” value [4, 11] was 432 ± 32 mg, the “Weight Male” value [4, 11] was 583 ± 68 mg and the Agonistic activity [5] was “NE (MAC = 1.0 × 10^−5 M)”. For the same compound, the EC50 [6] was 9.7 µM and the “In vitro positive: Esr” value ([6]; mode of action in which EC50 or PC10 was obtained in RGA) was “Esr”.
